From US8551999B2, “Heterocyclic compound and pharmaceutical composition thereof” (Otsuka Pharmaceutical Co., Ltd., priority 2007, dated 2013) come the findings set out here.

For the compound `Br.Cc1cc(Oc2ccc3cc(C(=O)N4CCN(Cc5ccc(OCC(F)(F)F)cc5)CC4)n(C)c3c2)ncc1N(C)C(=O)c1ccc(C(F)(F)F)cc1` [Example 47, N-Methyl-N-[4-methyl-6-(1-methyl-2-{4-[4-(2,2,2-trifluoroethoxy)-benzyl]piperazine-1-carbonyl}-1H-indol-6-yloxy)pyridin-3-yl]-4-trifluoromethylbenzamide hydrobromide], the melting point – broadly, the temperature of the solid-liquid transition – lay within 220 to 222.5 °C.
Under `Br.Cn1c(C(=O)N2CCN(Cc3ccc(OCC(F)(F)F)cc3)CC2)cc2ccc(Oc3ccc(NS(C)(=O)=O)cn3)cc21` [Example 76, N-[6-(1-Methyl-2-{4-[4-(2,2,2-trifluoroethoxy)benzyl]piperazine-1-carbonyl}-1H-indol-6-yloxy)pyridin-3-yl]methanesulfonamide hydrobromide] stands 237.8 to 240.1 °C.
The result for `COc1ccc(CN2CCN(C(=O)c3cc4cccc(Oc5ccc(N(C)C(=O)c6ccc(C(F)(F)F)cc6)cn5)c4n3C)CC2)cc1.O=C(O)C(=O)O` [Example 323, N-(6-{2-[4-(4-Methoxybenzyl)piperazine-1-carbonyl]-1-methyl-1H-indol-7-yloxy}pyridin-3-yl)-N-methyl-4-trifluoromethylbenzamide oxalate] reads 134 to 135 °C.
Take `Br.CN(C(=O)c1ccc(C(F)(F)F)cc1Cl)c1ccc(Oc2ccc3cc(C(=O)N4CCN(Cc5ccc(OCCF)cc5)CC4)n(C)c3c2)nc1` [Example 447, 2-Chloro-N-[6-(2-{4-[4-(2-fluoroethoxy)benzyl]piperazine-1-carbonyl}-1-methyl-1H-indol-6-yloxy)pyridin-3-yl]-N-methyl-4-tri-fluoromethylbenzamide hydrobromide]: the melting point was in the range of 223.6 to 225.4 °C.
The result for `Cc1ccc(S(=O)(=O)Nc2ccc(Oc3ccc4cc(C(=O)N5CCN(Cc6ccc(OCC(F)(F)F)cc6)CC5)n(C)c4c3)nc2)cc1` [Example 71, 4-Methyl-N-[6-(1-methyl-2-{4-[4-(2,2,2-trifluoroethoxy)benzyl]-piperazine-1-carbonyl}-1H-indol-6-yloxy)pyridin-3-yl]benzene-sulfonamide] reads 198.3 to 200.3 °C.
Take `Br.CCOc1ccc(CN2CCN(C(=O)c3cc4cc(Oc5cc(C)c(N(C)C(=O)c6ccc(Cl)c(Cl)c6)cn5)ccc4n3C)CC2)cc1` [Example 366, 3,4-Dichloro-N-(6-{2-[4-(4-ethoxybenzyl)piperazine-1-carbonyl]-1-methyl-1H-indol-5-yloxy}-4-methylpyridin-3-yl)-N-methylbenzamide hydrobromide]: the melting point was in the range of 201 to 204 °C.
The result for `COc1ccccc1CN1CCN(C(=O)c2cc3cc(Oc4ccc(N(C)C(=O)c5ccc(C(F)(F)F)cc5)cn4)ccc3n2C)CC1.O=C(O)C(=O)O` [Example 355, N-(6-{2-[4-(2-Methoxybenzyl)piperazine-1-carbonyl]-1-methyl-1H-indol-5-yloxy}pyridin-3-yl)-N-methyl-4-trifluoromethylbenzamide oxalate] reads 140 to 142 °C.
The result for `Br.Cn1c(C(=O)N2CCN(Cc3ccc(OCC(F)F)cc3)CC2)cc2ccc(Oc3ccc(NC(=O)c4ccc(Cl)c(Cl)c4)cn3)cc21` [Example 268, 3,4-Dichloro-N-[6-(2-{4-[4-(2,2-difluoroethoxy)benzyl]piperazine-1-carbonyl}-1-methyl-1H-indol-6-yloxy)pyridin-3-yl]benzamide hydrobromide] reads 221.5 to 222.3 °C; that for `Br.Br.Cn1c(C(=O)N2CCN(Cc3ccncc3)CC2)cc2cc(Oc3ccc(NC(=O)c4ccc(Cl)c(Cl)c4)cn3)ccc21` [Example 555, 3,4-Dichloro-N-{6-[1-methyl-2-(4-pyridin-4-ylmethylpiperazine-1-carbonyl)-1H-indol-5-yloxy]pyridin-3-yl}benzamide dihydrobromide], 214 to 219 °C (dec.).
The result for `Br.CC(C)Oc1ccc(CN2CCN(C(=O)c3cc4ccc(Oc5ccc(NC(=O)c6ccc(Cl)c(Cl)c6)cn5)cc4n3C)CC2)c(F)c1` [Example 265, 3,4-Dichloro-N-(6-{2-[4-(2-fluoro-4-isopropoxybenzyl)piperazine-1-carbonyl]-1-methyl-1H-indol-6-yloxy}pyridin-3-yl)benzamide hydrobromide] reads 242.5 to 246.7 °C; that for `Br.COc1ccc(CN2CCN(C(=O)c3cc4ccc(Oc5ccc(N(C)C(=O)c6ccc(C(F)(F)F)cc6)cn5)cc4n3C)CC2)cc1` [Example 322, N-(6-{2-[4-(4-Methoxybenzyl)piperazine-1-carbonyl]-1-methyl-1H-indol-6-yloxy}pyridin-3-yl)-N-methyl-4-trifluoromethylbenzamide hydrobromide], 233 to 235 °C.
On to `CN(C(=O)c1ccc(C(F)(F)F)cc1)c1cnc(Oc2ccc3c(c2)cc(C(=O)N2CCN(Cc4ccc(C#N)cc4)CC2)n3C)nc1.O=C(O)/C=C\C(=O)O` [Example 383, N-(2-{2-[4-(4-Cyanobenzyl)piperazine-1-carbonyl]-1-methyl-1H-indol-5-yloxy}pyrimidin-5-yl)-N-methyl-4-trifluoromethylbenzamide maleate], for which the melting point was in the range of 154 to 156 °C.
For the compound `Br.Cn1c(C(=O)N2CCN(Cc3ccc4c(c3)OCO4)CC2)cc2cc(Oc3ccc(NC(=O)c4ccc(C(F)(F)F)cc4C(F)(F)F)cn3)ccc21` [Example 9, N-{6-[2-(4-Benzo[1,3]dioxol-5-ylmethylpiperazine-1-carbonyl)-1-methyl-1H-indol-5-yloxy]pyridin-3-yl}-2,4-bistrifluoromethyl-benzamide hydrobromide], the melting point is 258 to 261 °C (dec.).
Under `Cc1cc(C(F)(F)F)ccc1C(=O)Nc1ccc(Oc2ccc3cc(C(=O)N4CCN(Cc5ccc6c(c5)OC(F)(F)O6)CC4)n(C)c3c2)nc1.Cl` stands 207.9 to 211.5 °C.
The result for `CC(C)N(c1ccc(Oc2ccc3cc(C(=O)N4CCN(Cc5ccc(OCC(F)(F)F)cc5)CC4)n(C)c3c2)nc1)S(=O)(=O)c1ccc(Cl)c(Cl)c1.Cl` reads 232.8 to 235.6 °C; that for `Br.CN(C(=O)c1ccc(C(F)(F)F)cc1)c1ccc(Oc2cccc3c2cc(C(=O)N2CCN(Cc4ccc(C#N)cc4)CC2)n3C)nc1` [Example 326, N-(6-{2-[4-(4-Cyanobenzyl)piperazine-1-carbonyl]-1-methyl-1H-indol-4-yloxy}pyridin-3-yl)-N-methyl-4-trifluoromethylbenzamide hydrobromide], 273 to 276 °C; that for `Cc1ccc(S(=O)(=O)N(C)c2ccc(Oc3ccc4cc(C(=O)N5CCN(Cc6ccc(OCC(F)(F)F)cc6)CC5)n(C)c4c3)nc2)cc1.Cl`, 246.4 to 247.2 °C.
The result for `Br.CCOc1cccc(CN2CCN(C(=O)c3cc4cc(Oc5ccc(NC(=O)c6ccc(Cl)c(Cl)c6)cn5)ccc4n3C)CC2)c1` [Example 373, 3,4-Dichloro-N-(6-{2-[4-(3-ethoxybenzyl)piperazine-1-carbonyl]-1-methyl-1H-indol-5-yloxy}pyridin-3-yl)benzamide hydrobromide] reads 225 to 227 °C.
`CN(c1ccc(Oc2ccc3cc(C(=O)N4CCN(Cc5ccc(OCCF)cc5)CC4)n(C)c3c2)nc1)S(=O)(=O)c1ccc(Cl)c(Cl)c1` [Example 513, 3,4-Dichloro-N-[6-(2-{4-[4-(2-fluoroethoxy)benzyl]piperazine-1-carbonyl}-1-methyl-1H-indol-6-yloxy)pyridin-3-yl]-N-methyl-benzenesulfonamide]: the melting point fell in the range of 195.2 to 196.8 °C.
Under `Cc1ccc(S(=O)(=O)N(C)c2ccc(Oc3ccc4cc(C(=O)N5CCN(Cc6ccc(OC(C)C)nc6)CC5)n(C)c4c3)nc2)cc1` [Example 534, N-(6-{2-[4-(6-Isopropoxypyridin-3-ylmethyl)piperazine-1-carbonyl]-1-methyl-1H-indol-6-yloxy}pyridin-3-yl)-4,N-dimethyl-benzenesulfonamide] stands 131.1 to 132.8 °C; under `Br.CCCOc1ccc(CN2CCN(C(=O)c3cc4c(C)c(Oc5ccc(N(C)C(=O)c6ccc(C(F)(F)F)cc6)cn5)ccc4n3C)CC2)cc1` [Example 434, N-(6-{1,4-Dimethyl-2-[4-(4-propoxybenzyl)piperazine-1-carbonyl]-1H-indol-5-yloxy}pyridin-3-yl)-N-methyl-4-trifluoromethyl-benzamide hydrobromide], 204 to 208 °C; under `Br.COCc1ccc(CN2CCN(C(=O)c3cc4ccc(Oc5ccc(NC(=O)c6ccc(Cl)c(Cl)c6)cn5)cc4n3C)CC2)cc1` [Example 259, 3,4-Dichloro-N-(6-{2-[4-(4-methoxymethylbenzyl)piperazine-1-carbonyl]-1-methyl-1H-indol-6-yloxy}pyridin-3-yl)benzamide hydrobromide], 243.6 to 247.7 °C.
The result for `Br.Cc1cc(Oc2ccc3cc(C(=O)N4CCN(Cc5ccc(OCC(F)(F)F)cc5)CC4)n(C)c3c2)ncc1N(C)S(C)(=O)=O` [Example 78, N-Methyl-N-[4-methyl-6-(1-methyl-2-{4-[4-(2,2,2-trifluoroethoxy)-benzyl]piperazine-1-carbonyl}-1H-indol-6-yloxy)pyridin-3-yl]-methanesulfonamide hydrobromide] reads 235.8 to 237.8 °C; that for `Br.CCOc1ccc(CN2CCN(C(=O)c3cc4cc(Oc5ccc(NC(=O)c6ccc(C(F)(F)F)cc6)cn5)ccc4n3C)CC2)cc1` [Example 363, N-(6-{2-[4-(4-Ethoxybenzyl)piperazine-1-carbonyl]-1-methyl-1H-indol-5-yloxy}pyridin-3-yl)-4-trifluoromethylbenzamide hydrobromide], 231 to 234 °C; that for `Br.CC(C)Oc1ccc(CN2CCN(C(=O)c3cc4ccc(Oc5ccc(NC(=O)c6ccc(Cl)c(Cl)c6)cn5)cc4n3C)CC2)cc1F` [Example 266, 3,4-Dichloro-N-(6-{2-[4-(3-fluoro-4-isopropoxybenzyl)piperazine-1-carbonyl]-1-methyl-1H-indol-6-yloxy}pyridin-3-yl)benzamide hydrobromide], 244.3 to 247 °C.
Under `Br.Cn1c(C(=O)N2CCN(Cc3ccc(OCC(F)F)cc3)CC2)cc2ccc(Oc3ccc(NC(=O)c4ccc(C(F)(F)F)cc4)cn3)cc21` [Example 479, N-[6-(2-{4-[4-(2,2-Difluoroethoxy)benzyl]piperazine-1-carbonyl}-1-methyl-1H-indol-6-yloxy)pyridin-3-yl]-4-trifluoromethyl-benzamide hydrobromide] stands 260.7 to 261.2 °C.
